Measurements taken from the Deep4Chem optical property database.

Experiment: photoluminescence quantum yield (fraction); solvent given as SMILES

## COc1ccccc1C1=[N+]2C(=Nc3c(-c4ccccc4)cc(-c4ccccc4OC)n3[B-]2(F)F)C(c2ccccc2)=C1
In Cc1ccccc1
  photoluminescence quantum yield: 0.07

## CCN(CC)c1ccc2c(c1)oc(=O)c1c(C)nc3c(c(-c4ccccc4)nn3-c3ccccc3)c12
In C1CCCCC1
  photoluminescence quantum yield: 0.635
In CCOC(C)=O
  photoluminescence quantum yield: 0.634
In CN(C)C=O
  photoluminescence quantum yield: 0.51
In CO
  photoluminescence quantum yield: 0.396
In ClCCl
  photoluminescence quantum yield: 0.653

## CCN(CC)c1ccc2cc(C#N)/c(=N\C(=O)c3ccco3)oc2c1
In CCO
  photoluminescence quantum yield: 0.033
In ClCCl
  photoluminescence quantum yield: 0.9

## CCCCOC(=O)c1ccccc1-c1c2ccc(=[N+](CC)CC)cc-2oc2cc(N(CC)CC)ccc12
In CC#N
  photoluminescence quantum yield: 0.36
In CCO
  photoluminescence quantum yield: 0.71
In CN(C)C=O
  photoluminescence quantum yield: 0.35
In O
  photoluminescence quantum yield: 0.3

## Cc1ccc(N(C)C)cc1C1=C2C=CC(=[N+](C)C)C=C2[Si](C)(C)c2cc(N(C)C)ccc21
In O
  photoluminescence quantum yield: 0.001

## COc1ccc(C2=C(c3ccc(OC)cc3)c3cccc4c3c(cc3nc5ccccc5nc34)O2)cc1
In ClCCl
  photoluminescence quantum yield: 0.48

## Cc1cc(C)c(B(c2cc(-c3ccc(C(F)(F)F)cc3)sc2-c2sc(-c3ccc(C(F)(F)F)cc3)cc2P(=O)(c2ccccc2)c2ccccc2)c2c(C)cc(C)cc2C)c(C)c1
In CO
  photoluminescence quantum yield: 0.41

## CCn1c2ccsc2c2c3nsnc3c3c4sccc4n(CC)c3c21
In C1CCOC1
  photoluminescence quantum yield: 0.68
In CCOC(C)=O
  photoluminescence quantum yield: 0.63
In CN(C)C=O
  photoluminescence quantum yield: 0.42
In Cc1ccccc1
  photoluminescence quantum yield: 0.73
In ClCCl
  photoluminescence quantum yield: 0.33

## c1ccc(-c2nc3c(-c4ccc(N(c5ccccc5)c5ccccc5)cc4)ccc(-c4ccc(N(c5ccccc5)c5ccccc5)cc4)c3nc2-c2ccccc2)cc1
In ClC(Cl)Cl
  photoluminescence quantum yield: 0.51

## CC(C)(C)c1ccc2c(c1)c1cc(C(C)(C)C)ccc1n2-c1ccc(-c2nc(-c3ccc(-n4c5ccc(C(C)(C)C)cc5c5cc(C(C)(C)C)ccc54)cc3)nc(-c3ccc(P(=O)(c4ccccc4)c4ccccc4)cc3)n2)cc1
In O=P(c1ccccc1)(c1ccccc1)c1ccccc1Oc1ccccc1P(=O)(c1ccccc1)c1ccccc1
  photoluminescence quantum yield: 0.74

## CCOC(=O)c1ccc2c(c1)sc1c3ccc(C(=O)OCC)cc3sc21
In CCCO
  photoluminescence quantum yield: 0.083

## COc1ccc(C2=CC3=C(c4c(C)cc(C)cc4C)c4cc(-c5ccc(OC)cc5)c(-c5ccc(OC)cc5)n4[B-](F)(F)[N+]3=C2c2ccc(OC)cc2)cc1
In C1CCCCC1
  photoluminescence quantum yield: 0.64
In C1CCOC1
  photoluminescence quantum yield: 0.42
In CC#N
  photoluminescence quantum yield: 0.24
In Cc1ccccc1
  photoluminescence quantum yield: 0.51
In ClCCl
  photoluminescence quantum yield: 0.42

## CC1=CC(C)=[N+]2C1=C(c1ccc(C)cc1)c1c(C)cc(/C=C/c3ccc4ccc5cccc6ccc3c4c56)n1[B-]2(F)F
In CC1CCCO1
  photoluminescence quantum yield: 0.64

## Cc1c(C)n2c(COC(=O)c3ccccc3I)c(C)c(=O)n2c1=O
In CCO
  photoluminescence quantum yield: 0.634

## CC1=[N+]2C(=C(c3ccc4c(c3)Cc3ccccc3-4)c3ccc(C)n3[B-]2(F)F)C=C1c1cc2n(c1)[B-](F)(F)[N+]1=CC=CC1=C2c1c(C)cc(C)cc1C
In C1CCCCC1
  photoluminescence quantum yield: 0.65
In CCOC(C)=O
  photoluminescence quantum yield: 0.11

## COc1ccc2c(c1)C(=O)c1ccccc1-2
In C1CCCCC1
  photoluminescence quantum yield: 0.034
In CC#N
  photoluminescence quantum yield: 0.0018
In CCO
  photoluminescence quantum yield: 0

## N#CC1=CC(C=O)=CC(C#N)=P1(c1ccccc1)c1ccccc1
In ClC(Cl)Cl
  photoluminescence quantum yield: 0.72

## F[B-]1(F)n2cccc2C(c2c3ccccc3c(-c3ccccc3)c3ccccc23)=C2C=CC=[N+]21
In CC#N
  photoluminescence quantum yield: 0.001
In CCO
  photoluminescence quantum yield: 0.002
In CN(C)C=O
  photoluminescence quantum yield: 0.001
In Cc1ccccc1
  photoluminescence quantum yield: 0.007
In ClCCl
  photoluminescence quantum yield: 0.002

## CCCCCCc1ccc(-n2c3c4cccc(OC)c4nc(-c4ccc(C)cc4)c3c3c2c2c(-c4ccc(C)cc4)nc4c(OC)cccc4c2n3-c2ccc(CCCCCC)cc2)cc1
In ClC(Cl)Cl
  photoluminescence quantum yield: 0.02

## CC[Si](CC)(CC)c1cc2ccc3cccc4ccc(c1C(=O)NC(C)(C)C)c2c34
In ClC(Cl)Cl
  photoluminescence quantum yield: 0.162

## CCCCCCCCOc1ccc(C2=C3C(C)=C(C#Cc4ccc(B(c5c(C)cc(C)cc5C)c5c(C)cc(C)cc5C)cc4)C(C)=[N+]3[B-](F)(F)n3c(C)c(C#Cc4ccc(B(c5c(C)cc(C)cc5C)c5c(C)cc(C)cc5C)cc4)c(C)c32)cc1
In ClCCl
  photoluminescence quantum yield: 0.65

## N#CC1=CC(c2ccccc2)=CC(C#N)=P1(c1ccccc1)c1ccccc1
In ClC(Cl)Cl
  photoluminescence quantum yield: 0.75

## COc1ccc(-c2c3ccccc3c(C#Cc3ccccc3)c3cc4cc(C)sc4cc23)cc1
In ClCCl
  photoluminescence quantum yield: 0.73

## O=c1[nH]nc(-c2ccc(/C=C/c3ccc(-c4n[nH]c(=O)o4)cc3)cc2)o1
In CN(C)C=O
  photoluminescence quantum yield: 0.5

## CCCCn1c2ccc(C#Cc3cccs3)cc2c2c1c1c3ccc(C#Cc4cccs4)cc3n(CCCC)c1c1c3ccc(C#Cc4cccs4)cc3n(CCCC)c21
In C1CCOC1
  photoluminescence quantum yield: 0.39

## Oc1ccccc1-c1nc2ccccc2s1
In CCO
  photoluminescence quantum yield: 0.0155
In ClCCl
  photoluminescence quantum yield: 0.0368
In O
  photoluminescence quantum yield: 0.101

## Cc1ccc(C2C(C#N)=C(N)n3c(=O)c4ccccc4c(=O)n32)cc1 (stereo not given)
In CS(C)=O
  photoluminescence quantum yield: 0.045

## O=C(O)c1ccc(C(=O)O)c2cc3ccccc3cc12
In C1CCOC1
  photoluminescence quantum yield: 0.61
In CN(C)C=O
  photoluminescence quantum yield: 0.19

## CCOC(=O)c1nn(-c2ccc(OC)cc2)nc1N1CCCC1
In CC#N
  photoluminescence quantum yield: 0.731

## CC1(C)CC(=O)C2=C(C1)Oc1ccc3ccc(O)cc3c1C2c1ccccn1 (stereo not given)
In C1CCOC1
  photoluminescence quantum yield: 0.0027
In C1COCCO1
  photoluminescence quantum yield: 0.0021
In CC#N
  photoluminescence quantum yield: 0.0037
In CCCCCCC
  photoluminescence quantum yield: 0.0082
In CCO
  photoluminescence quantum yield: 0.0035
In CO
  photoluminescence quantum yield: 0.0024
In O
  photoluminescence quantum yield: 0.2

## CCCCN(CCCC)c1ccc(C#Cc2cc(C#Cc3ccc(C#N)cc3)c(C#Cc3ccc(N(CCCC)CCCC)cc3)cc2C#Cc2ccc(C#N)cc2)cc1
In ClCCl
  photoluminescence quantum yield: 0.25

## COc1ccc2c(c1)c1ccccc1n2-c1nc2ccccc2nc1-n1c2ccccc2c2cc(OC)ccc21
In Cc1ccccc1
  photoluminescence quantum yield: 0.13

## COc1ccc(-c2ccc(OC)cc2)cc1
In C1CCCCC1
  photoluminescence quantum yield: 0.31

## CCCCCCc1cc(-c2ccc3c(c2)C2CCCC2N3c2ccc3c(c2)C(C)(C)c2ccccc2-3)sc1/C=C1\C(=O)c2ccc(C(=O)O)cc2C1=O (stereo not given)
In ClC(Cl)Cl
  photoluminescence quantum yield: 0.24

## CN(C)c1ccc(/C=C/c2nc3c(ccc4ccccc43)s2)cc1
In C1CCCCC1
  photoluminescence quantum yield: 0.012
In CC#N
  photoluminescence quantum yield: 0.008

## Cc1ccc2nc3cc4c5c(cccc5c3nc2c1)C(c1ccccc1)=C(c1ccccc1)O4
In ClCCl
  photoluminescence quantum yield: 0.37

## COc1ccc(-c2ccc(C(=O)NC(C)(C)C)c3c2ccc2c4ccccc4c4ccccc4c23)cc1
In ClCCl
  photoluminescence quantum yield: 0.21

## CCCCCC(=O)c1cccc2sc3c(c12)P(=O)(c1ccccc1)c1ccccc1-3 (stereo not given)
In ClCCl
  photoluminescence quantum yield: 0.13

## CC(=O)Nc1ccc(C2=C/C(=C\c3ccc(C#N)cc3)C(=O)N2CC(C)C)cc1
In C1COCCO1
  photoluminescence quantum yield: 0.218

## CCCCCCCCCCCCn1cccc1/C=C/c1cc(OCCCC)c(/C=C/c2cccn2CCCCCCCCCCCC)cc1OCCCC
In Cc1ccccc1
  photoluminescence quantum yield: 0.4

## CC(C)Oc1ccc(C#Cc2ccc3ccc(=O)oc3c2)cc1
In CC#N
  photoluminescence quantum yield: 0.034

## Cc1cc2c3ccccc3n(C)c2c2c1c1ccccc1n2C
In ClCCl
  photoluminescence quantum yield: 0.114

## Cc1ccc2nc3c(=O)[nH]c(=O)[nH]c3nc2c1
In CC#N
  photoluminescence quantum yield: 0.017
In ClCCCl
  photoluminescence quantum yield: 0.024

## CC1=N/C(=C\c2cc(C#N)cc(N(C)C)c2)C(=O)N1C
In C1CCOC1
  photoluminescence quantum yield: 0.14
In CC#N
  photoluminescence quantum yield: 0.05
In CCCCCC
  photoluminescence quantum yield: 0.45

## COC(=O)c1ccc(/C=C2\N=C(c3ccccc3)NC2=O)cc1
In C1COCCO1
  photoluminescence quantum yield: 0.159

## CCN1c2ccc(/C=N/Nc3ccccn3)cc2Sc2cc(/C=N/Nc3ccccn3)ccc21
In C1CCOC1
  photoluminescence quantum yield: 0.15
In CS(C)=O
  photoluminescence quantum yield: 0.19
In Cc1ccccc1
  photoluminescence quantum yield: 0.14
In ClCCl
  photoluminescence quantum yield: 0.37

## CCCC1(CCC)c2ccccc2-c2ccc(-c3ccc4c(c3)C(CCC)(CCC)c3cc(-c5ccc6c(c5)C(CCC)(CCC)c5ccccc5-6)ccc3-4)cc21
In C1CCCCC1
  photoluminescence quantum yield: 0.91

## Clc1ccc(/C=C/c2nc3ccccc3s2)cc1
In C1CCCCC1
  photoluminescence quantum yield: 0.04
In CO
  photoluminescence quantum yield: 0.01

## CC(C)(C)c1ccc(C2=C(c3ccc(N(c4ccccc4)c4ccccc4)cc3)S(=O)(=O)c3c2sc(-c2ccc(N(c4ccccc4)c4ccccc4)cc2)c3-c2ccc(C(C)(C)C)cc2)cc1
In C1CCOC1
  photoluminescence quantum yield: 0.442

## Cc1ccc(C#Cc2ccc(C#Cc3ccc(C#Cc4ccccc4C#N)cc3C#N)cc2C#N)cc1
In ClC(Cl)Cl
  photoluminescence quantum yield: 0.96

## N#Cc1c(-n2nnc3c2-c2ccccc2CN(C(=O)CCN)c2ccccc2-3)n([C@H]2C[C@H](O)[C@@H](CO)O2)c2ncnc(N)c12
In CO
  photoluminescence quantum yield: 0.005

## CC(C)(C)c1ccc2c(c1)c1cc(C(C)(C)C)ccc1n2-c1nc2ccccc2nc1-n1c2ccc(C(C)(C)C)cc2c2cc(C(C)(C)C)ccc21
In Cc1ccccc1
  photoluminescence quantum yield: 0.32

## c1ccc2c(c1)c1ccccc1c1[nH]c(-c3ccc(-c4nc5c6ccccc6c6ccccc6c5[nH]4)cc3)nc21
In C1CCOC1
  photoluminescence quantum yield: 0.79
In CC#N
  photoluminescence quantum yield: 0.76
In CCO
  photoluminescence quantum yield: 0.77
In CS(C)=O
  photoluminescence quantum yield: 0.78
In ClCCl
  photoluminescence quantum yield: 0.76

## CCC(C)(C)c1ccc2c(c1)C(CC)(CC)c1cc(-c3ccc(-c4ccc5c(c4)C(CC)(CC)c4cc(C(C)(C)CC)ccc4-5)cc3)ccc1-2
In C1CCCCC1
  photoluminescence quantum yield: 1

## CC(C)(C)c1ccc(N(c2ccc(S(=O)(=O)c3ccc(S(=O)(=O)c4ccc(N(c5ccc(C(C)(C)C)cc5)c5ccccc5C(C)(C)C)cc4)cc3)cc2)c2ccccc2C(C)(C)C)cc1
In Cc1ccccc1
  photoluminescence quantum yield: 0.8

## CCC1(CC)c2ccccc2-c2c1c1c(c3c2C(CC)(CC)c2cc(B(c4c(C)cc(C)cc4C)c4c(C)cc(C)cc4C)ccc2-3)C(CC)(CC)c2cc(B(c3c(C)cc(C)cc3C)c3c(C)cc(C)cc3C)ccc2-1
In C1CCOC1
  photoluminescence quantum yield: 0.4

## COc1ccc2cc(C3=[N+]4C(=Nc5c(-c6ccccc6)cc(-c6ccc7cc(OC)ccc7c6)n5[B-]4(F)F)C(c4ccccc4)=C3Br)ccc2c1
In ClC(Cl)Cl
  photoluminescence quantum yield: 0.12
In ClCCl
  photoluminescence quantum yield: 0.12

## N#Cc1cc(-n2c3ccccc3c3ncccc32)c(-n2c3ccccc3c3ncccc32)cc1C#N
In c1cc(-n2c3ccccc3c3ccccc32)cc(-n2c3ccccc3c3ccccc32)c1
  photoluminescence quantum yield: 0.93

## CCOC(=O)c1cc(C(=O)OCC)c2ccc(O)cc2n1
In CCO
  photoluminescence quantum yield: 0.007

## F[B-]1(F)n2c(cc(Br)c2Br)C(c2ccccc2)=C2C=C(Br)C(Br)=[N+]21
In ClC(Cl)Cl
  photoluminescence quantum yield: 0.98
